Assay results as given in patent US9012166B2, “Method for assaying histone methylation enzyme activity” (Kyushu Institute of Technology, priority 2010, dated 2015).
Where two headings read alike, the source gives them in different places.

Tests used:
Format in all cases: biochemical
trypsin = assay: LC/MS analysis of reaction between substrate compound and trypsin; settings: Example 3; 37° C., 15 minutes
Method: (§1) Distilled water was added to 10 μL of 2×HMT buffer (100 mM Tris-HCl (pH 8.5), 20 mM MgCl2, 40 mM KCl, 20 mM 2-mercaptoethanol, 500 mM sucrose) and 1 μL of a BocLysMCA solution to adjust the total volume to 20 μL. To the resultant solution was added 30 μL of a peptidase solution (20 mg/mL trypsin or 20 mAU/mL lysyl endopeptidase), which was then mixed and incubated at 37° C. for 15 minutes. Then, the solution was applied to a liquid chromatograph mass spectrometer (LC/MS) for analysis. Analysis was performed by the same method as that for the above analysis except for using monomethylated BocLysMCA (i.e., “BocLys(Me)MCA”), dimethylated BocLysMCA (i.e., “BocLys(Me)2MCA”), or trimethylated BocLysMCA (i.e., “BocLys(Me)3MCA”) in place of BocLysMCA. Analysis was also carried out by the same method except for using, in place of the above-described peptidase solution, an equal volume of distilled water.

lysyl endopeptidase = lysyl endopeptidase (Achromobacter lyticus, UniProt P15636); assay: LC/MS analysis of reaction between substrate compound and lysyl endopeptidase; settings: Example 3; 37° C., 15 minutes
Sequence of lysyl endopeptidase (P15636 206-473 limits assumed, species assumed): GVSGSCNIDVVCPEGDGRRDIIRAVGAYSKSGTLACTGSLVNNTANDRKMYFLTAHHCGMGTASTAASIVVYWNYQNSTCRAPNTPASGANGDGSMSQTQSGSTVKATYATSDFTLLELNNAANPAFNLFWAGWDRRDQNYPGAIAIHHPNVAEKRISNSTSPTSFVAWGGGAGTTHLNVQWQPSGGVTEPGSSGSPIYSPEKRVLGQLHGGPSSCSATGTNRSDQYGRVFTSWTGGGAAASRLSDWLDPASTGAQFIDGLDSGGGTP
Method: as §1

Set9 = biological target: T1, Set9 (Homo sapiens, UniProt Q8WTS6); assay: Western blot evaluation of histone methyltransferase inhibitor, Set9; settings: FIG. 17
T1 sequence (Q8WTS6 1-366): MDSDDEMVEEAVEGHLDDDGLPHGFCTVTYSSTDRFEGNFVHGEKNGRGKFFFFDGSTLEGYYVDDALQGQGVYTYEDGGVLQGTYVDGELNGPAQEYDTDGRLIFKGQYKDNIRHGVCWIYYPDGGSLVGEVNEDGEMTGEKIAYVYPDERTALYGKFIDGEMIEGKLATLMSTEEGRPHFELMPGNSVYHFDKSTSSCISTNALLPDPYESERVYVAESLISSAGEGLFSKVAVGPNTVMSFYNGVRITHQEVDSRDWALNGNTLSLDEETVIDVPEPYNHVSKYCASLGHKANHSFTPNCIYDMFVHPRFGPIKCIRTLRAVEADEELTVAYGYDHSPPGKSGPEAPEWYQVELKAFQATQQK
Method: To examine whether the activity of a histone methyltransferase inhibitor could be evaluated by an assay for measuring histone methyltransferase activity using a peptidyl MCA, the assay for measuring histone methyltransferase activity was attempted. However, the activity of gliotoxin as a histone methyltransferase inhibitor was evaluated by Western blot, prior to the assay for measuring histone methyltransferase activity. Gliotoxin is known not to inhibit the methylation activity of Set9 but to inhibit the methylation activity of G9a. […] The following assay for measuring histone methyltransferase activity was carried out in order to examine whether the same results as those from the Western blot could also be obtained from the assay for measuring histone methyltransferase activity.

[1] = biological target: T2, Set9 (His-Set9, His-Set7/9) (Homo sapiens, UniProt Q8WTS6); assay: Assay for measuring histone methyltransferase activity using peptidyl MCA, inhibitor evaluation with Set9
T2 sequence (Q8WTS6 1-366): T1 sequence (Q8WTS6 1-366)
Method: When Set9 was adopted as a histone methyltransferase, the following method was used. 10 μL of 2×HMT buffer (100 mM Tris-HCl (pH 8.5), 20 mM MgCl2, 40 mM KCl, 20 mM 2-mercaptoethanol, 500 mM sucrose), 0.4 μL of a BSA solution (150 μg/mL), 4.5 μL of His-Set9 (0, 2.25 μg/μL), 1 μL of gliotoxin (any of various concentrations) and 0.1 μL of distilled water were mixed and then incubated at room temperature for 1 hour. Then, 2 μL of SAM (10 mM) and 2 μL of a peptidyl MCA (Ac-p53 (369-372)-MCA) solution (0.6 mM) were added thereto, which was then incubated at 37° C. for 1 hour. Thereafter, 30 μL of a trypsin solution (20 mg/mL) was added thereto, followed by incubation at 37° C. for 15 minutes. Then, the fluorescence intensity of the solution was measured at an excitation wavelength (λex) of 390 nm and a fluorescence wavelength (λem) of 460 nm. The final concentration of His-Set9 during the measurement of fluorescence intensity was 0.5 μg/μL. […]
The rate of the inhibition of methylation by gliotoxin was calculated from the results in the left panel and the middle panel of FIG. 18. Specifically, the value (%) was calculated which was obtained by dividing “a value obtained by subtracting “the fluorescence intensity of AMC when peptidase was added but gliotoxin was not added” from “the fluorescence intensity of AMC when both peptidase and gliotoxin were added”” by “a value obtained by subtracting “the fluorescence intensity of AMC when peptidase was added but gliotoxin was not added” from “the fluorescence intensity of AMC when no peptidase or gliotoxin was added”” and multiplying the resultant value by 100. […]
When His-Set7/9 was adopted as a histone methyltransferase, the following method was used. […] Then, the fluorescence intensity of the solution was measured at an excitation wavelength (λex) of 330 nm and a fluorescence wavelength (λem) of 380 nm or at an excitation wavelength (λex) of 390 nm and a fluorescence wavelength (λem) of 460 nm. The final concentration of His-Set7/9 during the measurement of fluorescence intensity was 0 μg/μL or 0.05 μg/μL.

| SMILES | hydrolysis by trypsin (LC/MS peaks) (trypsin) | hydrolysis by lysyl endopeptidase (LC/MS peaks) (lysyl endopeptidase) | inhibition of the methylation of Set9 (Western blot) (Set9) | IC50 ([1]; Example 8, Ac-p53 (369-372)-MCA, AMC fluorescence λex 390 nm/λem 460 nm, FIG. 18, read-out: IC50 for Set9) [µM] | IC50 ([1]; Example 14, Ac-ERα(299-302)-MCA, AMC fluorescence λex 390 nm/λem 460 nm, left panel, read-out: IC50 for His-Set7/9) [µM] | IC50 ([1]; Example 14, Ac-ERα(299-302)-MCA, peptidyl MCA fluorescence λex 330 nm/λem 380 nm, right panel of FIG. 28, read-out: IC50 for His-Set7/9) [µM] |
| --- | --- | --- | --- | --- | --- | --- |
| Cc1cc(=O)oc2cc(NC(=O)C(CCCCN)NC(=O)OC(C)(C)C)ccc12 (stereo not drawn) [BocLysMCA, Boc-K-MCA] | most BocLysMCA was hydrolyzed | most BocLysMCA was hydrolyzed | – | – | – | – |
| CN1C(=O)[C@]23CC4=CC=C[C@H](O)[C@H]4N2C(=O)[C@@]1(CO)SS3 [gliotoxin] | – | – | did not inhibit | > 100 | > 100 | > 100 |
